Laboratory results: patent US7557144B1, “Modulation of protein expression using carbocyclic aryl alkenoic acid derivatives” (The Johns Hopkins University, priority 2000, dated 2009)

Tests used:
Hsc70 mRNA = assay: RNase protection assay of Hsc70 mRNA in IB3-1 cells; assay type: cell-based, human
From the text: 4. RNase protection. An Hsc70-specific probe for RNase protec-tion was constructed by isolation a 500-bp EcoR I fragment from American Type Culture Collection (ATCC) plasmid 77659 (ATCC, Manassas, Va.) and ligating this fragment into the EcoR I site of pSK(2) (Bluescript, Stratagene, La Jolla, Calif.). The resulting plasmid was sequenced in the Genetics Core Facility at the Johns Hopkins Hospital and found to be identical to sequences in exons 8 and 9 of the human Hsc70 sequence, with sequencing using the T3 primer and T7 primer leading to sense and antisense sequence, respectively. Hybridization probes were synthesized using a Maxiscript T7 kit (Ambion, Austin, Tex.) and [α^32 P]UTP (Amersham or DuPont NEN, Boston, Mass.) according to the Maxiscript protocol. Templates for internal control hybridizations, pTRI-18S and pTRI-cyclophilin A, were purchased from Ambion, and probes were similarly synthesized using the Maxiscript T7 kit. Probes were isolated by acid phenol-chloroform (Ambion) extraction, separated from unincorporated nucleotide by gel filtration (Sephadex G25 RNAspin column, Boehringer-Mannheim), and ethanol-acetate precipitated before resuspension in hybridization buffer. The concentration of radioactivity in the synthesized probes was determined by liquid scintillation.
RNase protection experiments were performed using the Direct Protect RNase protection assay kit (Ambion) according to the manufacturer's protocol. IB3-1 cell lysates were pre-pared in Direct Protect lysis buffer according to the manufacturer's protocol after incubation under the appropriate conditions for 48 h. Probe (50-70 and 5-10 thousands of counts/min for Hsc70 and control, respectively) and cellular RNA were hybridized overnight at 37° C. and digested with RNase cocktail. Protected fragments were resolved by electrophoresis on 5% acrylamide-8 M urea gels and detected by fluorography. Hsc70 mRNA concentration is expressed relative to control (18S or cyclophilin A) hybridization by densitometry (see Densitometric analysis). Results for hybridization of Hsc70 mRNA relative to the two control species were similar and were therefore grouped for data analysis.
FIGS. 3A-B are explained in more detailed as follows. Dose-dependent downregulation of Hsc70 mRNA expression by 4-PBA. A: IB3-1 cells were treated as for FIGS. 1 and 2. Hsc70 mRNA and 18S rRNA (as an internal reference) were measured by Direct Protect RNase protection as described under General Comments. […] P values (shown above respective error bars) were determined by 1-way ANOVA in comparison with control.
FIG. 6 is explained in more detail as follows. […] P values (shown above respective error bars) were determined by 1-way ANOVA in comparison with control.

Hsc70-CFTR complexes = biological target: T1, Hsc70-CFTR complexes (Homo sapiens, UniProt P11142+P13569, DEL508-508); assay: Immunoprecipitation of Hsc70-CFTR complexes from untreated IB3-1 cells with 4-PBA in lysis and wash buffers; assay type: binding; details: 1 mM 4-PBA added to RIPA lysis and wash buffers
T1 construct: endogenous in cells; host or cells: IB3-1 (RIPA lysate, immunoprecipitated with anti-Hsc70 serum)
Method: 5. Immunoprecipitation. Cultured cells were solubilized by incubation for 1 h at 4° C. in RIPA[50 mM Tris-Cl (pH8.0), 150 mM NaCl, 1% Triton X-100 (Bio-Rad or Fisher Scientific), 1% sodium deoxycholate (Sigma), and protease inhibitor cocktail (Sigma; used at 1:1,000 final dilution)]. Solubilized cells were then homogenized by passage 10 times through a 20-gauge needle and cleared by centrifugation at 15,000 g for 20 min at 4° C. Protein concentration was determined using the Bio-Rad DC reagents as above. Polyclonal Hsc70 antiserum was added to the cell lysates (2 μl/250 μg total protein, with equal amounts of protein at equal final concentrations for each condition within an experiment) and incubated at 4° C. over-night with gentle agitation. Immune complexes were captured with protein A-Sepharose 4B (Pharmacia Biotechnologies, Piscataway, N.J.) that had been preabsorbed with BSA for 45 min at 4° C. […]
The decrease in CFTR recovered by immunoprecipitation in proportion to the decrease in Hsc70 is consistent with 4-PBA not directly influencing the binding affinity of CFTR and Hsc70. This was further assessed by immunoprecipitating Hsc70-CFTR complexes from untreated IB3-1 cells either with or without 1 mM 4-PBA added to the RIPA lysis and wash buffers.

T1 sequence (P13569 with tags, fused parts or gaps DEL508-508): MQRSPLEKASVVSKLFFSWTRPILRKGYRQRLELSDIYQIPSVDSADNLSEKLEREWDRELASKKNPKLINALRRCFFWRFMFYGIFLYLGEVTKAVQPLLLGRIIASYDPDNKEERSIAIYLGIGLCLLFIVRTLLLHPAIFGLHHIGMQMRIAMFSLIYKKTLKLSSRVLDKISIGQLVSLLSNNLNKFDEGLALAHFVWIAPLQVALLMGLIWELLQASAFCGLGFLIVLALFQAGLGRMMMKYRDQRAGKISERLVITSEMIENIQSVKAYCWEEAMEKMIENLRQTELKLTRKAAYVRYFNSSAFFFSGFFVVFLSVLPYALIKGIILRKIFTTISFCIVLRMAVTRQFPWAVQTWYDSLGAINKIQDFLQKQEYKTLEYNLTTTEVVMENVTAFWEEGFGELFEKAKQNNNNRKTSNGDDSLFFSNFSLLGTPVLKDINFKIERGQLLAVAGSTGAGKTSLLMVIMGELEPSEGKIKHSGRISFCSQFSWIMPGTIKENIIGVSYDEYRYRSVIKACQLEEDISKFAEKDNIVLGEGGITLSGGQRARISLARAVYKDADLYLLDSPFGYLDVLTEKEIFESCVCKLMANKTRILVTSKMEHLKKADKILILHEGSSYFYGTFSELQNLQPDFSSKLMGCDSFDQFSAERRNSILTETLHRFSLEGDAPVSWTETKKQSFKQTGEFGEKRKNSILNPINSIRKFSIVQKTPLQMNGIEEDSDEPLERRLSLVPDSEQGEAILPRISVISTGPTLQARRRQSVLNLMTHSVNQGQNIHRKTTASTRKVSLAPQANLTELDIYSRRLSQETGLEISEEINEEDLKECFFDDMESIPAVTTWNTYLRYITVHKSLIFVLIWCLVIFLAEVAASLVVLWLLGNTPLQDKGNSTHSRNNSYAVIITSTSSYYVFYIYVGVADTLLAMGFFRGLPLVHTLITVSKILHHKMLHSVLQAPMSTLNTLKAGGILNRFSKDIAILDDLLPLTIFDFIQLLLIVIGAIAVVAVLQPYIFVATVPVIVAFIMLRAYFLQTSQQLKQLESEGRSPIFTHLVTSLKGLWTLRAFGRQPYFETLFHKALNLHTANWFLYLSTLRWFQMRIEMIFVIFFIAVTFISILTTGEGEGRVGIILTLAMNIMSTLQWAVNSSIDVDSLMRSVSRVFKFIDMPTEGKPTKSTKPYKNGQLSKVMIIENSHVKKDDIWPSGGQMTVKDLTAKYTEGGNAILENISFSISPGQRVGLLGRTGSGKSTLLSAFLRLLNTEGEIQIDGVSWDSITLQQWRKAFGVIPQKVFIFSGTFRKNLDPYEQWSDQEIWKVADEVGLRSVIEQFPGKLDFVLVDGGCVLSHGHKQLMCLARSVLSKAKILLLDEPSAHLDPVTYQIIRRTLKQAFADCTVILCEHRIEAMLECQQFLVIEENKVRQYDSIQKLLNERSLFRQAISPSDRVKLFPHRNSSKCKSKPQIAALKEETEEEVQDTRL
T1 sequence (P11142 2-646 limits assumed, stated change not applied): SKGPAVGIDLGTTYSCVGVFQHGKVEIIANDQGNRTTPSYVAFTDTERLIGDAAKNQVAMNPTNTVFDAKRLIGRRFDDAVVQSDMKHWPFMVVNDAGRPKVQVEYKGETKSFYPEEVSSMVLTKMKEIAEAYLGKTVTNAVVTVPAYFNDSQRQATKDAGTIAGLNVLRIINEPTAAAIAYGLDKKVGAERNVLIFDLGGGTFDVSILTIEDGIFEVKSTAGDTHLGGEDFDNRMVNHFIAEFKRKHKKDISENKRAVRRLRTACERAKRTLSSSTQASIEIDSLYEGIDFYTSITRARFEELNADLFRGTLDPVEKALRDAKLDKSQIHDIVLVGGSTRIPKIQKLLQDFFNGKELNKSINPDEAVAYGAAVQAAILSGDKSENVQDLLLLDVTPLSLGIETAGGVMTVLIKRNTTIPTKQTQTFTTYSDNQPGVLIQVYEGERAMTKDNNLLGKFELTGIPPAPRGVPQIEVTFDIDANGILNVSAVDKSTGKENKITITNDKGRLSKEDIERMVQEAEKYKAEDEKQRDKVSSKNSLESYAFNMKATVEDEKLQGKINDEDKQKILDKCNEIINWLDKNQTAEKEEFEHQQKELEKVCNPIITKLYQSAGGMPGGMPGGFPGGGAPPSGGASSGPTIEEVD

O=C(O)CCCc1ccccc1 [4-PBA, 4-phenylbutyric acid]
steady-state Hsc70 mRNA levels (Hsc70 mRNA; 4-PBA treatment, relative to 18S rRNA): concentration-dependent decrease
maximum decrease of Hsc70 mRNA, of control expression (Hsc70 mRNA; continuous exposure to 5 mM 4-PBA): ~50%
recovery of Hsc70 and associated CFTR (Hsc70-CFTR complexes): unaltered
